Patent USRE43632E1, “1,3-propane diol esters and ethers and methods for their use in drug delivery” (Scarista, Ltd., priority 1995, dated 2012)
Like-named read-outs stand apart in the source and are kept apart here.

Key:
[1] = in vivo, po
Description: (§1) GLA was administered in the form of either GLA-GLA or GLA-EPA and EPA was administered in the form of GLA-EPA or EPA-EPA. The diesters were given either orally by gavage or intravenously in the form of a 20% emulsion made using 2% of oat galactolipid as an emulsifier in doses from about 0.1 to 2.0 g/kg. Animals were killed after 1, 2, 4, 8 and 24 hours and plasma, red cells and liver collected. The presence of the unmetabolised diesters was identified by high pressure liquid chromatography. The presence of fatty acids derived from the diesters and of metabolites of those fatty acids was checked by lipid extraction of the liver, plasma or red cells, by separation of that lipid fraction into triglycerides, phospholipids, cholesterol esters and free fatty acids by thin layer chromatography, by methylation of the fatty acids derived from those separated fractions and by analysis of those fatty acids using gas chromatography using methods well described in standard texts.

[2] = test system: normal fibroblast line, a breast cancer line and a malignant melanoma line; conditions: all cell lines: normal fibroblast, results set out in EPA-0 675 103; cited from earlier work
[3] = test system: ASPC-1 human pancreatic cancer; assay: ASPC-1 human pancreatic cancer transplanted subcutaneously into nude mice; type: in vivo
Description: As a specific example of the therapeutic efficacy of the diesters, the 1,3 GLA-EPA propane diol diester was tested in the treatment of the ASPC-1 human pancreatic -cancer transplanted subcutaneously into nude mice which because they lack thymus function are able to accept foreign transplants without rejection. 15 mice were each injected subcutaneously with 5 million ASPC-1 cells suspended in Matrigel and DMEM buffer. In all animals a tumour developed whose size could be measured using callipers and whose volume could be estimated from the linear dimensions. Tumour size in each animal was measured twice weekly for five weeks. The animals were divided into three groups. 5 animals were used as controls and received 10 g/kg corn oil per day only. 5 animals received 10 g/kg corn oil per day but in addition received two injections per week of a dose of 1.5 g/kg of the GLA-EPA diester. […] The other 5 animals instead of the corn oil received 10 g/kg/day of the GLA-EPA diester. The treatments were continued for three weeks and then the tumours were allowed to grow for a further two weeks before the animals were sacrificed and the tumours excised and weighed. The mean tumour weights were: control group, 1240±290 mg; intravenous GLA-EPA group, 820±180 mg; oral GLA-EPA group, 490±160 mg. […] Thus the diesters are biologically active ways of administering the various fatty acids. The diesters can therefore be reasonably expected to exert the many desirable effects of the fatty acids which have been noted in many publications in the literature (e.g. Horrobin D F, ed., Omega-6 Essential Fatty Acids: Pathophysiology and Roles in Clinical Medicine: Wiley-Liss, New York, 1990.Simopoulos A P et al, eds, Health Effects of Omega-3 Polyunsaturated Fatty Acids in Seafoods, Karger, Basel, 1991. Fats and Oils in Human Nutrition, World Health Organization, Rome, 1994. Unsaturated Fatty Acids: Nutritional and Physiological Significance. British Nutrition Foundation, Chapman and Hall, London, 1992).

[4] = In vivo delivery, release and metabolism of diesters after oral or intravenous administration
Description: as §1

[5] = test system: fasted rats; assay: Gastrointestinal ulceration in fasted rats; conditions: indomethacin 5-30 mg/kg or same amount as diester, sacrificed after 24 hours
Description: Doses of indomethacin known to cause gastrointestinal ulceration (5-30 mg/kg) were given to fasted rats either in the form of free indomnethacin or the same amount of indomethacin in a 1,3-propane diol diester with GLA in the other position. The animals were sacrificed after 24 hours and the whole gastrointestinal tract examined for ulceration.

SMILES: CCCCC/C=C\C/C=C\C/C=C\CCCCC(=O)OCCCOC(=O)Cc1c(C)n(C(=O)c2ccc(Cl)cc2)c2ccc(OC)cc12 [GLA-indomethacin, 1-(z,z,z-Octadeca-6,9,12-trienoyloxy)-3-(I-(4-chlorobenzoyl)-5-methoxy-2-methyl-indole-3-acetyloxy)propane]
- absorption and release of active moieties [1]: absorbed following oral administration and to release their active moieties

SMILES: CCCCC/C=C\C/C=C\C/C=C\CCCCC(=O)OCCCOC(=O)CCCC/C=C\C/C=C\C/C=C\CCCCC [GLA-GLA, 1,3-(di-z,z,z-Octadeca-6,9,12-trienoyloxy)propane]
- absorption and release of active moieties [1]: absorbed following oral administration and to release their active moieties

SMILES: CCCCC/C=C\C/C=C\C/C=C\CCCCC(=O)OCCCOC(=O)Cc1c(C)n(C(=O)c2ccc(Cl)cc2)c2ccc(OC)cc12 [indomethacin-GLA]
- intracellular level after incubation (cell penetration) [2]: very substantial amounts of both indomethacin-GLA and free indomethacin

SMILES: CC/C=C\C/C=C\C/C=C\C/C=C\C/C=C\CCCC(=O)OCCCOC(=O)CCCC/C=C\C/C=C\C/C=C\CCCCC [GLA-EPA, 1-(z,z,z-Octadeca-6,9,12-trienoyloxy)-3-(z,z,z,z,z-eicosa-5,8,11,14,17-pentaenoyloxy)propane]
- tumour growth ([3]; both oral and intravenous administration): substantially inhibited
- mean tumour weight ([3]; intravenous, 1.5 g/kg two injections per week for three weeks, 20% emulsion, tumours weighed at five weeks): 820 ± 180 mg
- side effects or distress in the animals ([3]; mouse, in vivo): without causing any side effects or distress
- tolerability of the intravenous emulsion ([3]; nude mice, 20% emulsion with 2% oat galactolipid, 1.5 g/kg twice weekly): very well tolerated and caused no haemolysis or thrombophlebitis
- in vivo release of free GLA and EPA ([4]; intravenous infusion and oral administration of the diester emulsion): rapid in vivo release of free GLA and EPA

SMILES: COc1ccc2c(c1)c(CC(=O)O)c(C)n2C(=O)c1ccc(Cl)cc1 [indomethacin, reference compound]
- ulceration of the whole gastrointestinal tract [5]: extensive ulceration
- intracellular level after incubation (cell penetration) [2]: very low

SMILES: CCCCCC=CCC=CCC=CCCCCC(=O)OCCCOC(=O)c1cccnc1 [niacin-GLA]
- absorption and release of active moieties ([4]; oral administration): absorbed following oral administration and to release their active moieties
